Experiments:
rats = test: General neuropharmacological profile: behaviour observation (excitation, bursts, sedation) after i.p. administration; format: in vivo; settings: rat; for Neuropharmacological profile: different dosage levels; for Duration of action compared with GHB / Potency compared with GHB: excitatory effects
Procedure: The tests, which were intended to evaluate the neuropharmacological activity of the amides of the invention, were conducted on rats, because most of the data available in the literature concern said animal species.
The time at which the effects started, their intensity and duration were recorded.
Molecules were evaluated by systematically using a control group, in which rats had been treated with the utilized solvent, and a positive control group, in which rats had been treated intraperitoneally (i.p.) with a standard dose of GHB sodium salt (100 mg/kg) in 2 ml. GHB and the assayed amides were administered in 50% DMSO in distilled water.
Said dose of drug, used as a reference, produced typical excitatory effects, characterized by the onset of generic excitation accompanied by more particular paroxysms, the so-called BURSTS of excitation.
Generic excitation was characterized by an increased motor activity, extremely sharp and jerky movements, higher reactivity and shakes.
“Bursts” of excitation were typical and well recognizable: the animals fought and frantically pursued each other.
Recordings concerned the number of “bursts”, the time of their onset after treatment, their intensity, the partial or total involvement of treated animals, the duration of the single episodes.
The sedation produced by higher doses of the molecules examined was evaluated analogously: time of onset, degree of sedation, partial or total involvement, duration of the effects.
Table 2—General Neuropharmacological Profile of Benzylamido Derivatives of GHB Compared With a 100 mq/kg Dose of GHB (Excitatory Dose)

[1] = tested on: motor activity of the rat; test: Effects on the motor activity of the rat; format: in vivo; settings: i.p., first half hour after administration
Procedure: Utilizing these preliminary goods results, the effects of said compounds were studied on the rats motor activity. This experiment permits to obtain a more objective evaluation about the effectiveness of the tested molecules, confirming and specifying the effective dosages, start and duration of the effects.
For these tests too, rats were subdvided into two groups: a control group of rats treated with the solvent and a positive control group consisting of rats treated i.p. with 300 mg/kg/2 ml GHB sodium salt in the aforesaid solvent.
GHB was systematically used as a reference: when administered at the above doses its motor reducing action spans a wide variation range.
Table 3—Effects on the Motor Activity Produced by Some Benzylamido Derivatives of GHB Compared With a 300 mg/kg Dose of GHB (Sedative Dose)
The following table reports data referred to the first half hour after administration. The per cent decreases in motor activity in respect of GHB are reported.

[2] = cited from earlier work

SMILES	< % (per cent decrease in motor activity) ([1]; dose 300 mg/kg) [%]	Neuropharmacological profile (rats)	Excitatory effects Duration (rats; dose 25-50 mg/kg) [min]	Excitatory effects Start (rats; dose 25-50 mg/kg) [min]	Potency compared with GHB (rats)	< % (per cent decrease in motor activity) ([1]; dose 100 mg/kg) [%]	further results
COc1cc(CNC(=O)CCCO)cc(OC)c1 [Compound 8)]	68						Excitatory effects Duration (rats; dose 100 mg/kg): 30 min; Excitatory effects Start (rats; dose 100 mg/kg): 60 min
COCCCC(=O)NCc1cccc2ccccc12 [Compound 14)]		biphasic neuropharmacological profile	180	30	more powerful than GHB	75	Potency (dose) and duration of action compared with GHB (rats): better than those of GHB; Duration of action compared with GHB (rats): longer duration of action; < % (per cent decrease in motor activity) ([1]; dose 50 mg/kg): 65%
O=C(CCCO)NCc1cccnc1 [Compound 9)]	72						Excitatory effects Duration (rats; dose 100 mg/kg): 15 min; Excitatory effects Start (rats; dose 100 mg/kg): 60 min; < % (per cent decrease in motor activity) ([1]; dose 100-200 mg/kg): 0%
COCCCC(=O)NCc1ccc(Cl)cc1 [Compound 11)]		biphasic neuropharmacological profile	60	20	more powerful than GHB	70	
CCCOCCCC(=O)NCc1ccc(C)cc1 [Compound 13)]		biphasic neuropharmacological profile				58	Excitatory effects Duration (rats; dose 100 mg/kg): 30 min; Excitatory effects Start (rats; dose 100 mg/kg): 45 min
COCCCC(=O)NCc1ccc(C)cc1 [Compound 7)]		biphasic neuropharmacological profile		20	more powerful than GHB	76	Potency (dose) and duration of action compared with GHB (rats): better than those of GHB; Duration of action compared with GHB (rats): longer duration of action
O=C(CCCO)NCc1ccc(Cl)cc1 [Compound 4)]	80					0	Excitatory effects Duration (rats; dose 50-100 mg/kg): 45 min; Excitatory effects Start (rats; dose 50-100 mg/kg): 30 min
Nc1ccc(CNC(=O)CCCO)cc1 [Compound 3)]		biphasic neuropharmacological profile	60	30	more powerful than GHB		
CCCNC(=O)CCCO [Compound 2)]	82						
COc1ccc(CNC(=O)CCCO)cc1 [Compound 6)]	57		45	45			
CCOCCCC(=O)NCc1ccc(C)cc1 [Compound 12)]		biphasic neuropharmacological profile	30	60	more powerful than GHB	54.5	
O=C(O)CCCO [GHB, γ-hydroxybutyric acid]		causes excitation at relatively low doses and sedation at higher doses					Maximum concentration peak, time after administration ([2]; absorption by the gastroenteric apparatus): 35 to 40 min; Half-life time ([2]; in vivo): 20 to 25 min; Duration of action (excitatory effects) (rats; GHB reference): 1 h
COCCCC(=O)NCc1ccc(C(F)(F)F)cc1 [Compound 15)]		biphasic neuropharmacological profile		20	more powerful than GHB		Potency (dose) and duration of action compared with GHB (rats): better than those of GHB; Duration of action compared with GHB (rats): longer duration of action; < % (per cent decrease in motor activity) ([1]; dose 25-50 mg/kg): 64%
COCCCC(=O)NCc1ccccc1 [Compound 10)]		biphasic neuropharmacological profile	30	20	more powerful than GHB	42	
Cc1ccc(CNC(=O)CCCO)cc1 [Compound 5)]	77	biphasic neuropharmacological profile					Potency (dose) and duration of action compared with GHB (rats): substantially superimposable to GHB acid; Dosage required for excitatory effects (rats; GHB reference excitatory dose 100 mg/kg): 100 mg/kg; Excitatory effects Start (rats; dose 100 mg/kg): 20 min

Reference: patent US6770784B2, “Use of γ-hydroxybutyric acid amides in the treatment of drug addiction and in particular of alcoholism” (Laboratorio Farmaceutico C.T. S.r.l., priority 1996, dated 2004)
